Measurements as given in paper PMC4448990 (Pharmacology Research & Perspectives, 2015).

Key:
[1] = biological target: human Nav1.3 sodium channels (Homo sapiens, UniProt Q9NY46); experiment: whole-cell patch clamp, Nav1.3 in CHO-K1 cells; format: cell-based; details: 250 μmol/L
[2] = biological target: human GRIN1/GRIN2B NMDA receptor (Homo sapiens, UniProt Q05586+Q13224); experiment: submaximal NMDA-receptor-mediated currents in HEK cells; format: cell-based
[3] = biological target: T1, human GlyRα3 glycine receptors (Homo sapiens, UniProt O75311); experiment: submaximal glycine currents in CHO cells; format: cell-based
T1 sequence (O75311 34-464): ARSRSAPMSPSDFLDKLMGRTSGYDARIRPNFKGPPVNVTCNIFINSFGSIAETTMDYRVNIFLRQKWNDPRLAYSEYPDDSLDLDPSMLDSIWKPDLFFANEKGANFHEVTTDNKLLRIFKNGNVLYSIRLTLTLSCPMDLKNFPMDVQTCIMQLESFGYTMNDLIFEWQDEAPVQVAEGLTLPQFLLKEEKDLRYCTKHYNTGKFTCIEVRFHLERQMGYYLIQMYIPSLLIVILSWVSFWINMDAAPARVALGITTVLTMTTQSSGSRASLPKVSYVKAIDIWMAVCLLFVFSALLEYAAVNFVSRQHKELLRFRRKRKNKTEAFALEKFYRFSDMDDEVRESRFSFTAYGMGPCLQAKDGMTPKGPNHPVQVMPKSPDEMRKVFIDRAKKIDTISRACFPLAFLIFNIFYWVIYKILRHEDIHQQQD

[4] = human plasma and CSF pharmacokinetics; format: in vivo; details: ESL 1200 mg once daily, protein binding 30%
[5] = biological target: Adenosine transporter (h) (Homo sapiens, UniProt Q99808); experiment: in vitro selectivity profile; format: binding
Sequence of Adenosine transporter (h) (Q99808 whole entry): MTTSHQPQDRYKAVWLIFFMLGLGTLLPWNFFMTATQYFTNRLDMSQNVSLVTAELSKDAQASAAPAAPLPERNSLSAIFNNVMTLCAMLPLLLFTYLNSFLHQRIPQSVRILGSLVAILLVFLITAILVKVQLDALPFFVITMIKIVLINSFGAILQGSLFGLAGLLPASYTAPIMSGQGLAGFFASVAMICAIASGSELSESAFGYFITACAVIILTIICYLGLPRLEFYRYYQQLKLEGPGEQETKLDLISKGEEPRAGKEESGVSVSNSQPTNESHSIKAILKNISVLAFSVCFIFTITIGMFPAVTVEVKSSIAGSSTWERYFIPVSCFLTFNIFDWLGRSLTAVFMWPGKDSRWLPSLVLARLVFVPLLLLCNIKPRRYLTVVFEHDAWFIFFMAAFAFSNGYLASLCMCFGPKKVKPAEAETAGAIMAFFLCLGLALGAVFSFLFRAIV

Adenosine, A2 = experiment: in vitro selectivity profile; format: binding; details: eslicarbazepine 400 μmol/L
Adenosine, A2A (h) = Adenosine, A2A (h) (Homo sapiens, UniProt P29274); experiment: in vitro selectivity profile; format: binding
Dopamine, D2s (h) = Dopamine, D2s (h) (Homo sapiens, UniProt P14416); experiment: in vitro selectivity profile; format: binding
Dopamine, D4.2 (h) = Dopamine, D4.2 (h) (Homo sapiens, UniProt P21917, DEL265-296); experiment: in vitro selectivity profile; format: binding
GABA-B = experiment: in vitro selectivity profile; format: binding; details: eslicarbazepine 400 μmol/L
[6] = tested on: Glutamate, chloride-dependent site; experiment: in vitro selectivity profile; format: binding; details: eslicarbazepine 400 μmol/L
Glutamate, kainate site = experiment: in vitro selectivity profile; format: binding; details: eslicarbazepine 400 μmol/L
Glutamate, mGluR1 = experiment: in vitro selectivity profile; format: binding; details: eslicarbazepine 400 μmol/L
Glutamate, mGluR5 = experiment: in vitro selectivity profile; format: binding; details: eslicarbazepine 400 μmol/L
[7] = tested on: Glutamate, NMDA, glycine (strychnine-insensitive); experiment: in vitro selectivity profile; format: binding; details: eslicarbazepine 400 μmol/L
[8] = tested on: Imidazoline, I2 [central]; experiment: in vitro selectivity profile; format: binding; details: eslicarbazepine 400 μmol/L
Muscarinic, M1 (h) = Muscarinic, M1 (h) (Homo sapiens, UniProt P11229); experiment: in vitro selectivity profile; format: binding
Muscarinic, M5 (h) = Muscarinic, M5 (h) (Homo sapiens, UniProt P08912); experiment: in vitro selectivity profile; format: binding
[9] = biological target: Norepinephrine transporter (h) (Homo sapiens, UniProt P23975); experiment: in vitro selectivity profile; format: binding
Sequence of Norepinephrine transporter (h) (P23975 whole entry): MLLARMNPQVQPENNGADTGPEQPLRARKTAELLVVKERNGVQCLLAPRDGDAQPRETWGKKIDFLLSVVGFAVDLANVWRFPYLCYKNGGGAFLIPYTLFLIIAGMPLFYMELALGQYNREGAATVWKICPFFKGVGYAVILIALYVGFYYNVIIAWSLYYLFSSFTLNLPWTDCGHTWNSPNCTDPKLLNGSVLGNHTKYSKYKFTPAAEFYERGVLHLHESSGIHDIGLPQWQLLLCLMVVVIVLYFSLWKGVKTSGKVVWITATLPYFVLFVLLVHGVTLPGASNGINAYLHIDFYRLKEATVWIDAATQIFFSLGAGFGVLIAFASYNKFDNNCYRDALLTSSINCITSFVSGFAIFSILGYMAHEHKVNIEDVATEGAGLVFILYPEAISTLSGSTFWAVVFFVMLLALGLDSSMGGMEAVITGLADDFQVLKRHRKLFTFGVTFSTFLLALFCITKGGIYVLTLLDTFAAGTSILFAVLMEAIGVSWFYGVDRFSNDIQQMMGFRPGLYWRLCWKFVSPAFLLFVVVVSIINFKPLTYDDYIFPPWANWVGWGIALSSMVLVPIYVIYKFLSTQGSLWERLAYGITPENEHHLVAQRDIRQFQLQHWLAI

Opioid, Mu (h) = Opioid, Mu (h) (Homo sapiens, UniProt P35372); experiment: in vitro selectivity profile; format: binding
Purinergic, P2Y = experiment: in vitro selectivity profile; format: binding; details: eslicarbazepine 400 μmol/L
[10] = tested on: Serotonin, 5HT1, nonselective; experiment: in vitro selectivity profile; format: binding; details: eslicarbazepine 400 μmol/L
Serotonin, 5HT5A (h) = Serotonin, 5HT5A (h) (Homo sapiens, UniProt P47898); experiment: in vitro selectivity profile; format: binding
Calcium channel, type N = experiment: in vitro selectivity profile; format: binding; details: eslicarbazepine 400 μmol/L
[11] = tested on: Thyrotropin-releasing hormone, TRH; experiment: in vitro selectivity profile; format: binding; details: eslicarbazepine 400 μmol/L
Neurokinin, NK3 (NKB) = experiment: in vitro selectivity profile; format: binding; details: eslicarbazepine 400 μmol/L
Neurotensin (h) = Neurotensin (h) (Homo sapiens, UniProt P30989); experiment: in vitro selectivity profile; format: binding
Oxidase, MAO-A, central = experiment: in vitro selectivity profile; format: biochemical; details: eslicarbazepine 400 μmol/L
Oxidase, MAO-B, central = experiment: in vitro selectivity profile; format: biochemical; details: eslicarbazepine 400 μmol/L
[12] = biological target: Protease, caspase, CASP-2 (h) (Homo sapiens, UniProt P42575); experiment: in vitro selectivity profile; format: biochemical
[13] = biological target: Protease, caspase, CASP-8 (h) (Homo sapiens, UniProt Q14790); experiment: in vitro selectivity profile; format: biochemical
[14] = biological target: Kinase, protein, CK1d (CSNK1D) (h) (Homo sapiens, UniProt P48730); experiment: in vitro selectivity profile; format: biochemical
[15] = biological target: Kinase, protein, MAPK1 (ERK2, p42mapk) (h) (Homo sapiens, UniProt P28482); experiment: in vitro selectivity profile; format: biochemical
[16] = biological target: Kinase, protein, MAPK3 (ERK1, P44MAPK) (h) (Homo sapiens, UniProt P27361); experiment: in vitro selectivity profile; format: biochemical
Sequence of Kinase, protein, MAPK3 (ERK1, P44MAPK) (h) (P27361 whole entry): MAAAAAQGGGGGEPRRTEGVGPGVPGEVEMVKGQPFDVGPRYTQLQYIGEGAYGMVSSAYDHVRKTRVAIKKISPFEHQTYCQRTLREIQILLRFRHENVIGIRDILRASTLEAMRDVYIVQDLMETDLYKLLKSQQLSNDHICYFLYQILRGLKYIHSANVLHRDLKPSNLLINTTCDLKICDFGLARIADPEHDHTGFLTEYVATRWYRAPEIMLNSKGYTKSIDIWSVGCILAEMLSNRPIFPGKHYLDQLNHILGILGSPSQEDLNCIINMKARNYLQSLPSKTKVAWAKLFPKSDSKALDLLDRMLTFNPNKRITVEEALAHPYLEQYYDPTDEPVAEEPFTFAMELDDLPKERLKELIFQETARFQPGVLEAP

[17] = biological target: Kinase, protein, PKCb2 (h) (Homo sapiens, UniProt P05771); experiment: in vitro selectivity profile; format: biochemical
[18] = biological target: Kinase, protein, PKCz (h) (Homo sapiens, UniProt Q05513); experiment: in vitro selectivity profile; format: biochemical
[19] = biological target: Kinase, protein, ROCK2 (h) (Homo sapiens, UniProt O75116); experiment: in vitro selectivity profile; format: biochemical
Sequence of Kinase, protein, ROCK2 (h) (O75116 whole entry): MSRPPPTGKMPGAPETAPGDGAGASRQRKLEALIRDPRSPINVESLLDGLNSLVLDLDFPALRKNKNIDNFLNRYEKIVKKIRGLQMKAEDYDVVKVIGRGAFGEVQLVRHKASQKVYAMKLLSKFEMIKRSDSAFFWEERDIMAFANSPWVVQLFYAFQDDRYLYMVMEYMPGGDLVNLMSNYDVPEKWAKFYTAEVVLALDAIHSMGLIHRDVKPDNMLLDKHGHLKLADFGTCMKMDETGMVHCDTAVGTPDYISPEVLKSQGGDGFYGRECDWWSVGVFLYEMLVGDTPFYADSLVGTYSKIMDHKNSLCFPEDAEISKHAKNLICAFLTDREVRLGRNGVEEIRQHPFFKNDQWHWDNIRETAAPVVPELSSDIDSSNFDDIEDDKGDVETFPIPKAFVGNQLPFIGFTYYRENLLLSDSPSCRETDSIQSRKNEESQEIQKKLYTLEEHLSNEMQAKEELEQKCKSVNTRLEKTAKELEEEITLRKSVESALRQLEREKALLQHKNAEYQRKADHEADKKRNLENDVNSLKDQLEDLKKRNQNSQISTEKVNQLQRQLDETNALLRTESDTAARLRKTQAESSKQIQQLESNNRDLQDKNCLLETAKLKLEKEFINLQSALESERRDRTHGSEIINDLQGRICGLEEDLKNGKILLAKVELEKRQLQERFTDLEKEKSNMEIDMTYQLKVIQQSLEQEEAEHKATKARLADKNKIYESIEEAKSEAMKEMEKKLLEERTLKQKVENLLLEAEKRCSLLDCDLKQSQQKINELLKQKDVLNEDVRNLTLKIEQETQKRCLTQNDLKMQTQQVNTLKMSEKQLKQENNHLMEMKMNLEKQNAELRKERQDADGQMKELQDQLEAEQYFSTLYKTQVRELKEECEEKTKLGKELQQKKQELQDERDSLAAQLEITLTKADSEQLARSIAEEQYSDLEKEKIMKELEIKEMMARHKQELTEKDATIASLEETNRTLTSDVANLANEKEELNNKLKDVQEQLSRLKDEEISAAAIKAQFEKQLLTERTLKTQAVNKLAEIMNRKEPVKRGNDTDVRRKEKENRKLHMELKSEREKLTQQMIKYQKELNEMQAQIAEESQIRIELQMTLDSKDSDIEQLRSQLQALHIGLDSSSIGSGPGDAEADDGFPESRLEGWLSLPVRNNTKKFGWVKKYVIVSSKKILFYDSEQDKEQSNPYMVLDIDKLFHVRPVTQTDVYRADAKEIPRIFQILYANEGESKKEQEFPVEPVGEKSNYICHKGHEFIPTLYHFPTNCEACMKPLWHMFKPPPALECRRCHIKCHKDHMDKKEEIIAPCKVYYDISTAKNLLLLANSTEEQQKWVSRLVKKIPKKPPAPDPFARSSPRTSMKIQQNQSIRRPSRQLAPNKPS

[20] = tested on: transient Na+ current (INaT); details: ref Döser et al. [2013b], [2015]; cited from earlier work

Sequence of human Nav1.3 sodium channels (Q9NY46 whole entry): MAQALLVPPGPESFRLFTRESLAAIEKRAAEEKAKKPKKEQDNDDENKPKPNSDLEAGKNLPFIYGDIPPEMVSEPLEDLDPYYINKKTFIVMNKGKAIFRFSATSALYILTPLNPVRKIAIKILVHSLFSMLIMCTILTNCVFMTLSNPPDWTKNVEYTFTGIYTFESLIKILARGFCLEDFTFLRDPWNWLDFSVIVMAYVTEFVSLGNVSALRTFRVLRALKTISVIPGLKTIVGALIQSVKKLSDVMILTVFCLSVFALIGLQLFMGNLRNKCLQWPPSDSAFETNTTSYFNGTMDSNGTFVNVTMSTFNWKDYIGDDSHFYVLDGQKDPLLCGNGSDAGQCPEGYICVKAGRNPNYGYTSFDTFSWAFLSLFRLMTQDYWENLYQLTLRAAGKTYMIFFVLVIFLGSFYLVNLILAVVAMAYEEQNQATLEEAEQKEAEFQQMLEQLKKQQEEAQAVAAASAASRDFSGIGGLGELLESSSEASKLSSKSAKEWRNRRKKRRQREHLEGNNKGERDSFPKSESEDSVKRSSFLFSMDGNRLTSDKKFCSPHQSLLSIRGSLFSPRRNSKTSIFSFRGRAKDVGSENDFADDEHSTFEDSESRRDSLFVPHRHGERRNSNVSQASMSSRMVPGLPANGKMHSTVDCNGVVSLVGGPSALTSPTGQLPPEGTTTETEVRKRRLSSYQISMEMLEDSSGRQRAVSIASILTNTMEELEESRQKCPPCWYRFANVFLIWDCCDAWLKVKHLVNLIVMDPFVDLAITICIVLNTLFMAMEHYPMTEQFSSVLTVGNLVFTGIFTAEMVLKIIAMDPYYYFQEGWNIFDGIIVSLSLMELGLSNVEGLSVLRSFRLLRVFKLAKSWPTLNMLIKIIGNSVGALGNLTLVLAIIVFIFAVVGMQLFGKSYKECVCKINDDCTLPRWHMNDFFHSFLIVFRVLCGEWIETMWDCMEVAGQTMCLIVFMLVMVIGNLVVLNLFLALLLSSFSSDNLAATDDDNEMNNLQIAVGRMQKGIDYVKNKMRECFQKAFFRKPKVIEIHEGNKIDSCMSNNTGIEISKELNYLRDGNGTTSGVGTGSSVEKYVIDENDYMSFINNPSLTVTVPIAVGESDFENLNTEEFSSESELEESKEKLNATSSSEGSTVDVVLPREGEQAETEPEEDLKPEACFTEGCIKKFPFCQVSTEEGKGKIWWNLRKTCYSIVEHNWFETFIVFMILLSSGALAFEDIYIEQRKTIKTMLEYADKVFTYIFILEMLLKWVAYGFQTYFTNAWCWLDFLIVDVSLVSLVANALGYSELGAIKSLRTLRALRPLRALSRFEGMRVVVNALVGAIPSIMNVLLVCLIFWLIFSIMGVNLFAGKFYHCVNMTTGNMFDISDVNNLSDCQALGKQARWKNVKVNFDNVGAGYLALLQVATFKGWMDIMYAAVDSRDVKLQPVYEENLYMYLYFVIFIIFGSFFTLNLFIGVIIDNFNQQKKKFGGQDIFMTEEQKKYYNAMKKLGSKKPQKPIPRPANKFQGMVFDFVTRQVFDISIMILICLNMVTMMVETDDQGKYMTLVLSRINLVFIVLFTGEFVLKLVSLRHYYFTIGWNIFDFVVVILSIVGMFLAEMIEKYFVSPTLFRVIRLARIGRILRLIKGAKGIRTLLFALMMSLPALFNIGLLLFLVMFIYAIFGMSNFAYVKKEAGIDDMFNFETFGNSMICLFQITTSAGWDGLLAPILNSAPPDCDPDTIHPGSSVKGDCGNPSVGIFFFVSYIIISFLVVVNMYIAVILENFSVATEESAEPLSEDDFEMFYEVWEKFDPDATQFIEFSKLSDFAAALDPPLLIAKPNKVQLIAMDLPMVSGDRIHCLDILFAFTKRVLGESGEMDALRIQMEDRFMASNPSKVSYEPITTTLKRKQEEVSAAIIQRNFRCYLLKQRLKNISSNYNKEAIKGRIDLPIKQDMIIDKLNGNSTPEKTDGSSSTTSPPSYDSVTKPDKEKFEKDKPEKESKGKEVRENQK

With `NC(=O)N1c2ccccc2C[C@H](O)c2ccccc21` [eslicarbazepine] the “Fast inactivation V0.5” value ([1]; mean ± SEM, n = 3–6) was −40.68 ± 3.10 mV, the “Slow inactivation V0.5” value ([1]; mean ± SEM, n = 3–6) was −26.61 ± 2.74 mV and the “time constant for entering the slow inactivated state” value ([1]; control 20.29 sec) was 14.02 s. For the same molecule, the IC50 [2] was 1230 µM, the IC50 [3] was 1190 µM and the “eslicarbazepine-free drug, peak plasma” value [4] was 63 µmol/L. For the same molecule, the inhibition at 400 µM [5] was 10.1%, the “% inhibition” value (Adenosine, A2) was 0.0% and the inhibition at 400 µM (Adenosine, A2A (h)) was 6.81%. For the same molecule, the inhibition at 400 µM (Dopamine, D2s (h)) was 0%, the inhibition at 400 µM (Dopamine, D4.2 (h)) was 0% and the “% inhibition” value (GABA-B) was 11.72%. The “% inhibition” value [6] was 9.36%, the “% inhibition” value (Glutamate, kainate site) was 1.56% and the “% inhibition” value (Glutamate, mGluR1) was 1.82%. For the same molecule, the “% inhibition” value (Glutamate, mGluR5) was 14.42%, the “% inhibition” value [7] was 13.21% and the “% inhibition” value [8] was 17.45%. For the same molecule, the inhibition at 400 µM (Muscarinic, M1 (h)) was 0%, the inhibition at 400 µM (Muscarinic, M5 (h)) was 16% and the inhibition at 400 µM [9] was 9.33%. The inhibition at 400 µM (Opioid, Mu (h)) was 0%, the “% inhibition” value (Purinergic, P2Y) was 0.0% and the “% inhibition” value [10] was 11.43%. The inhibition at 400 µM (Serotonin, 5HT5A (h)) was 11.9%, the “% inhibition” value (Calcium channel, type N) was 23.34% and the “% inhibition” value [11] was 16.14%. For the same molecule, the “% inhibition” value (Neurokinin, NK3 (NKB)) was 0.0%, the inhibition at 400 µM (Neurotensin (h)) was 4.94% and the “% inhibition” value (Oxidase, MAO-A, central) was 15.98%. For the same molecule, the “% inhibition” value (Oxidase, MAO-B, central) was 0.95%, the inhibition at 400 µM [12] was 0% and the inhibition at 400 µM [13] was 0%. For the same molecule, the inhibition at 400 µM [14] was 5.18%, the inhibition at 400 µM [15] was 0% and the inhibition at 400 µM [16] was 2.05%. The inhibition at 400 µM [17] was 0%, the inhibition at 400 µM [18] was 1.48% and the inhibition at 400 µM [19] was 8.54%. For the same molecule, the “inhibition of firing of DGCs, control versus pilocarpine-treated rats” value [20] was “equally effective in inhibiting firing of DGCs in control versus pilocarpine-treated rats”.
